Source: ChEMBL document CHEMBL5154812, “Development of novel urea-based ATM kinase inhibitors with subnanomolar cellular potency and high kinome selectivity” (Eur J Med Chem, 2022)
Values after ≈ are worked out from the molar mass of the structure shown. One block for each molecule: values may come before it.

How the values were obtained:
[1] = target: T1, Serine-protein kinase ATM (Homo sapiens, UniProt Q13315); test: Inhibition of ATM (unknown origin) by FRET assay
[2] = target: T1, Serine-protein kinase ATM; test: Inhibition of ATM in human A549 cells assessed as reduction in etoposide-stimulated KAP1 phosphorylation by In-Cell-Western assay; type: cell-based
[3] = target: Phosphatidylinositol 4,5-bisphosphate 3-kinase catalytic subunit alpha isoform (Homo sapiens) (UniProt P42336); test: Inhibition of PI3Kalpha (unknown origin) assessed as residual activity at 1 uM relative to control
[4] = target: Phosphatidylinositol 4,5-bisphosphate 3-kinase catalytic subunit gamma isoform (Homo sapiens) (UniProt P48736); test: Inhibition of PI3Kgamma (unknown origin) assessed as residual activity at 1 uM relative to control
Phosphatidylinositol 4,5-bisphosphate 3-kinase catalytic subunit gamma isoform (Homo sapiens), sequence (P48736 whole entry, looked up, canonical isoform): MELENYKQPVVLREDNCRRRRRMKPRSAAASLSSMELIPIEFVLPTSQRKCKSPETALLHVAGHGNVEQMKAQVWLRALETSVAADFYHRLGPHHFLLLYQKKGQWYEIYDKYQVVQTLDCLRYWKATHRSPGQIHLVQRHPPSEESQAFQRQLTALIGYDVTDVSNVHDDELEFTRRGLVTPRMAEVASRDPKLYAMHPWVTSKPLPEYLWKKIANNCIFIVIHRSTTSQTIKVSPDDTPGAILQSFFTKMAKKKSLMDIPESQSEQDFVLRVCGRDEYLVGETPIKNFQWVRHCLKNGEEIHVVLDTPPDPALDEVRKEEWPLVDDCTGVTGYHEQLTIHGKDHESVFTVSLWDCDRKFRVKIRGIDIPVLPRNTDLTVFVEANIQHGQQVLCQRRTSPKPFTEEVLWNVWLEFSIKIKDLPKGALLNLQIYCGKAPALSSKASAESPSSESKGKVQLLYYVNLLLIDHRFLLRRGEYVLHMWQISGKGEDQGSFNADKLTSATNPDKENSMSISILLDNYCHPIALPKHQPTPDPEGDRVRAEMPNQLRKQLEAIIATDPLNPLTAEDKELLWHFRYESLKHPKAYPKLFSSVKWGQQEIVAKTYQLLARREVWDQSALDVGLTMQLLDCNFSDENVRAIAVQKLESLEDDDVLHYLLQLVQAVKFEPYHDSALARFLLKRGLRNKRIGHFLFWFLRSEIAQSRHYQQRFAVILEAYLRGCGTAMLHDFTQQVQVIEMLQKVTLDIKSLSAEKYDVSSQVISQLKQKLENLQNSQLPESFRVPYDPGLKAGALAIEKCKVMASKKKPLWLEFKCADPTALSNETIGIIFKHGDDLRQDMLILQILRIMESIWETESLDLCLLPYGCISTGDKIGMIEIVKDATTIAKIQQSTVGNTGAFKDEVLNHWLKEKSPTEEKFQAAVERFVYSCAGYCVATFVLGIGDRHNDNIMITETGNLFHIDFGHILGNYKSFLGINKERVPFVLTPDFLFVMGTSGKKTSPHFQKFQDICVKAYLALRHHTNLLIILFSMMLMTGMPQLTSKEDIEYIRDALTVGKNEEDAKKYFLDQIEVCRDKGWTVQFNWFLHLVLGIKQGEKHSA

[5] = target: Serine/threonine-protein kinase mTOR (Homo sapiens) (UniProt P42345); test: Inhibition of mTOR (unknown origin) assessed as residual activity at 1 uM relative to control
[6] = target: DNA-dependent protein kinase catalytic subunit (Homo sapiens) (UniProt P78527); test: Inhibition of DNA-PK (unknown origin) assessed as residual activity at 1 uM relative to control
[7] = species: Homo sapiens; test: Selectivity ratio for inhibition of ATR (unknown origin) to inhibition of ATM (unknown origin)
[8] = target: Phosphatidylinositol 4,5-bisphosphate 3-kinase catalytic subunit beta isoform (Homo sapiens) (UniProt P42338); test: Inhibition of PI3Kbeta (unknown origin) assessed as residual activity at 1 uM relative to control
[9] = Metabolic stability in mouse liver microsomes assessed as parent compound remaining after 120 mins
[10] = target: Leucine-rich repeat serine/threonine-protein kinase 2 (Homo sapiens) (UniProt Q5S007); test: Inhibition of LRRK2 (unknown origin) assessed as residual activity at 1 uM relative to control
[11] = target: T2, Phosphatidylinositol 4,5-bisphosphate 3-kinase catalytic subunit delta isoform (Homo sapiens) (UniProt O00329); test: Inhibition of PI3Kdelta (unknown origin) assessed as residual activity at 1 uM relative to control
T2 sequence (whole entry): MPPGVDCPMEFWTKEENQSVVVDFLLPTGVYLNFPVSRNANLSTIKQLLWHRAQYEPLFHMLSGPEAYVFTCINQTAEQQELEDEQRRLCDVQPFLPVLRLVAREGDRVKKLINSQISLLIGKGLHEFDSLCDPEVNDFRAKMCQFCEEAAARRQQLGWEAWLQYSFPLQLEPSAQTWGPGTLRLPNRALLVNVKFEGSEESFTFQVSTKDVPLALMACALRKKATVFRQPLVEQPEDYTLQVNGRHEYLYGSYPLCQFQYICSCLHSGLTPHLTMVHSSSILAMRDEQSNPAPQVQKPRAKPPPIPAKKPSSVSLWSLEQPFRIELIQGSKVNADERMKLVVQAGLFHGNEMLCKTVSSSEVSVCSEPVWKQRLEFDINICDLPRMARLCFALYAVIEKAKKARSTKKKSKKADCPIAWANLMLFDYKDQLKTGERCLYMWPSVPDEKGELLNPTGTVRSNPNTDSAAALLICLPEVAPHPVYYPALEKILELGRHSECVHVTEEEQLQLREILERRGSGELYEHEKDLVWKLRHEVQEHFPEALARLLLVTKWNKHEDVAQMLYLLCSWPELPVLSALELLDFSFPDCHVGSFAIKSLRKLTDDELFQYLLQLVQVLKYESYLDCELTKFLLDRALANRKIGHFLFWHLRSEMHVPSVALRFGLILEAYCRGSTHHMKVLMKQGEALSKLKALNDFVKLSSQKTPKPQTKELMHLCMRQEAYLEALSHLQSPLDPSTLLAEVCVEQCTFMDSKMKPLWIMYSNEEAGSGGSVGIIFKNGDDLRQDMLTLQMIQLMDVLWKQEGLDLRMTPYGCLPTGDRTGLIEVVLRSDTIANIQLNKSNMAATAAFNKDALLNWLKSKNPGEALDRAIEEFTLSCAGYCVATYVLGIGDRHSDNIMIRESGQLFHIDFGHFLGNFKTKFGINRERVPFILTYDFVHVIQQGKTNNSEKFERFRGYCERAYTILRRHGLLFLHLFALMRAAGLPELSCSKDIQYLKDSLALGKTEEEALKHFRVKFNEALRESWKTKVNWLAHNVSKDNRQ

[12] = target: Serine/threonine-protein kinase ATR (Homo sapiens) (UniProt Q13535); test: Inhibition of ATR (unknown origin) assessed as residual activity at 1 uM relative to control
[13] = Thermodynamic solubility of compound in PBS at pH 7.4; type: physicochemical; conditions: read-out: Therm_solubility

T1 sequence (Q13315 whole entry): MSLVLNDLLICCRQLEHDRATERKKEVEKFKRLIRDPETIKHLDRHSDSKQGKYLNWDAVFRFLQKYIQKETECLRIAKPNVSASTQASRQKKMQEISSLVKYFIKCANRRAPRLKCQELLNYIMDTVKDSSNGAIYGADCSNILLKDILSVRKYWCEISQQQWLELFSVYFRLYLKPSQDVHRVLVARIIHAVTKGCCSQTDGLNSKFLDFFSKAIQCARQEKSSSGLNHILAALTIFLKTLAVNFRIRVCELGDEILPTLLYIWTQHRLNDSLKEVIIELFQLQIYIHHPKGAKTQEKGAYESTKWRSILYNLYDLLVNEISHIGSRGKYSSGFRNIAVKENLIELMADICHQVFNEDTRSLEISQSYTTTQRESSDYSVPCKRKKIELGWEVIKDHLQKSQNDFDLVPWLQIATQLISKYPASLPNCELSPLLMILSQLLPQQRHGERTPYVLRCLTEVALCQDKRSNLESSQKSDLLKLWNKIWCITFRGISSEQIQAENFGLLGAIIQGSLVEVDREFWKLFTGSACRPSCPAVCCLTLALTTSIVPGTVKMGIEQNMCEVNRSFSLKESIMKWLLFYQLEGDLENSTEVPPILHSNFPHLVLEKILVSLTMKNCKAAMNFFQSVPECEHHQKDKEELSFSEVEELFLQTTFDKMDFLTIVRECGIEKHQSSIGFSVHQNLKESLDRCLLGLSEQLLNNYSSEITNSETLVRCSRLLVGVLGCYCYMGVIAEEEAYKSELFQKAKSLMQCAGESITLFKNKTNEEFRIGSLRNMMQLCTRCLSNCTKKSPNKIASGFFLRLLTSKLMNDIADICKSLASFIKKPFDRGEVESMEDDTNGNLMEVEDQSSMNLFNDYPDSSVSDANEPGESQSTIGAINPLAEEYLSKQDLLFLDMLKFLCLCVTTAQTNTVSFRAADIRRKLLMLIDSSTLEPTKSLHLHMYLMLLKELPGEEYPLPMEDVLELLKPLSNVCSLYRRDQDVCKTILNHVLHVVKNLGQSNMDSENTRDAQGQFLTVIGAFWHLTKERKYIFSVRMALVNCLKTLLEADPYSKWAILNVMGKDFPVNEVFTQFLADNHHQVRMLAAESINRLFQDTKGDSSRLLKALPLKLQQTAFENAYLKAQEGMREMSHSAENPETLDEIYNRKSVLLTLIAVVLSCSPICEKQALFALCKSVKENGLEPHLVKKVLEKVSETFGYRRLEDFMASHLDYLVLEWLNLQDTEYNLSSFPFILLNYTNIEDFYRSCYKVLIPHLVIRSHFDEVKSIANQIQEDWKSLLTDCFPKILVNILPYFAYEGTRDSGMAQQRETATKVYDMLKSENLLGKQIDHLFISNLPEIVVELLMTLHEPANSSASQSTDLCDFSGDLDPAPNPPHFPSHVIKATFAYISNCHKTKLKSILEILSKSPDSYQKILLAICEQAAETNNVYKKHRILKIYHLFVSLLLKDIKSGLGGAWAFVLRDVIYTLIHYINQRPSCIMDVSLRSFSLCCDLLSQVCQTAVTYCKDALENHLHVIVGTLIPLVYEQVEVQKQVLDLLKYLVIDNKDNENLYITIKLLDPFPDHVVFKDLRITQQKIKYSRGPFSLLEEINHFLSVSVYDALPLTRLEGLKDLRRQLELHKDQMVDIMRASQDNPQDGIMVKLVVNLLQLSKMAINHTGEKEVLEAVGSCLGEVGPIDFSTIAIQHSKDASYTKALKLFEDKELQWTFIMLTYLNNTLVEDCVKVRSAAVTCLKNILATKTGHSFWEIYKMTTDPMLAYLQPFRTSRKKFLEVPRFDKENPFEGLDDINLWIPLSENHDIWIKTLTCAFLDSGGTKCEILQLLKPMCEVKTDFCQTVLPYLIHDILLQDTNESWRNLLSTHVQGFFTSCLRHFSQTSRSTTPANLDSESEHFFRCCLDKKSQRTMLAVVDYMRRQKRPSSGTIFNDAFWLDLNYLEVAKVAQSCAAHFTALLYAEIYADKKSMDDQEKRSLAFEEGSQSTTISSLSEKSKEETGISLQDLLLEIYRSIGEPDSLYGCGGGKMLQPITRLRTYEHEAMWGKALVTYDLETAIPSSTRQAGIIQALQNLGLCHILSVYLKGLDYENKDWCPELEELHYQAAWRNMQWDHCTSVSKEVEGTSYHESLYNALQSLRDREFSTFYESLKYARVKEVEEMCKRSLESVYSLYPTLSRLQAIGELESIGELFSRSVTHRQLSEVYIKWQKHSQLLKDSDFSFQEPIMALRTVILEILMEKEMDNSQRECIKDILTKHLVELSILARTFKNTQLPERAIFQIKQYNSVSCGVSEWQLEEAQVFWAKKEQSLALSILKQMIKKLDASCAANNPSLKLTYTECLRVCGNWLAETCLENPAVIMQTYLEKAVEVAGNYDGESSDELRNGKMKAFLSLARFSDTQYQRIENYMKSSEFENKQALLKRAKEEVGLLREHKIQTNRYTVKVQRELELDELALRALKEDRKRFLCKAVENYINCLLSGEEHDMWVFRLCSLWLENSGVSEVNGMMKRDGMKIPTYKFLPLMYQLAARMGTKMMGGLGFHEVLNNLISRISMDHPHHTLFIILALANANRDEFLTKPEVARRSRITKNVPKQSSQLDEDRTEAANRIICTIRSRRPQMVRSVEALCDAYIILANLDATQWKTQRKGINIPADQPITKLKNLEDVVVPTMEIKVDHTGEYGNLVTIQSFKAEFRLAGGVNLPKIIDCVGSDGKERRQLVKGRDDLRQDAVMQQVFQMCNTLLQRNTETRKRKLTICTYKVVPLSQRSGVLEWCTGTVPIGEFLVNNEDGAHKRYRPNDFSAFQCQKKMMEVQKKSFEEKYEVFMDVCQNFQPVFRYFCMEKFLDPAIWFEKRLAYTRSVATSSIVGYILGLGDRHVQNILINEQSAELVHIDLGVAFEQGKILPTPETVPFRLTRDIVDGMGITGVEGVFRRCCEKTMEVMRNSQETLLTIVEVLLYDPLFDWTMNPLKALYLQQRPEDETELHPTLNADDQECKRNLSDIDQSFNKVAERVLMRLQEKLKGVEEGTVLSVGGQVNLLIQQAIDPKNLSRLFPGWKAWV

Structure (SMILES): COCCn1c(=O)n(C)c2cnc3ccc(-c4ccc(NC(=O)N5CCN(C)CC5)cc4F)cc3c21
IC50 [1]: 101 nM

Structure (SMILES): COCCn1c(=O)n(C)c2cnc3ccc(-c4ccc(NC(=O)N5CCN(C)CC5)cc4)cc3c21
IC50 [1]: 78 nM

Structure (SMILES): COCCn1c(=O)n(C)c2cnc3ccc(-c4ccc(NC(=O)NCCN(C)C)cc4F)cc3c21
IC50 [1]: < 1 nM
IC50 [2]: 0.65 nM

Structure (SMILES): COCCn1c(=O)n(C)c2cnc3ccc(-c4ccc(NC(=O)NCCN(C)C)c(F)c4)cc3c21
Activity [3]: 28%
IC50 [1]: < 1 nM
IC50 [2]: 0.71 nM
Activity [4]: 80%
Activity [5]: 4%
Activity [6]: 8%
Selectivity ratio [7]: > 1000
Activity [8]: 87%
remaining at 2 h [9]: 78%
Activity [10]: 92%
Activity [11]: 35%
Activity [12]: 104%

Structure (SMILES): COCCn1c(=O)n(C)c2cnc3ccc(-c4ccc(NC(=O)N5CCN(C)CC5)c(F)c4F)cc3c21
IC50 [1]: 212 nM

Structure (SMILES): COCCn1c(=O)n(C)c2cnc3ccc(-c4ccc(NC(=O)NCCN5CC(F)(F)C5)cc4)cc3c21
IC50 [1]: < 1 nM
IC50 [2]: 3.31 nM

Structure (SMILES): COCCn1c(=O)n(C)c2cnc3ccc(-c4ccc(NC(=O)NC5CCN(C(=O)OC(C)(C)C)CC5)cc4)cc3c21
IC50 [1]: < 1 nM

Structure (SMILES): COCCn1c(=O)n(C)c2cnc3ccc(-c4ccc(NC(=O)N5CCN(C)CC5)c(F)c4Cl)cc3c21
IC50 [1]: 885 nM

Structure (SMILES): COCCn1c(=O)n(C)c2cnc3ccc(-c4ccc(NC(=O)NCCN(C)C)c(C)c4F)cc3c21
IC50 [1]: 37 nM

Structure (SMILES): COCCn1c(=O)n(C)c2cnc3ccc(-c4ccc(NC(=O)N5CCN(C(C)C)CC5)cc4)cc3c21
IC50 [1]: 158 nM

Structure (SMILES): COCCn1c(=O)n(C)c2cnc3ccc(-c4ccc(NC(=O)N5CCC(NC(=O)OC(C)(C)C)CC5)cc4)cc3c21
IC50 [1]: 2 nM

Structure (SMILES): COCCn1c(=O)n(C)c2cnc3ccc(-c4ccc(NC(=O)N5CCN(C)CC5)c(F)c4)cc3c21
IC50 [1]: 394 nM

Structure (SMILES): COCCn1c(=O)n(C)c2cnc3ccc(-c4ccc(NC(=O)N5CCN(C)CC5)c(C)c4F)cc3c21
IC50 [1]: 1580 nM

Structure (SMILES): COCCn1c(=O)n(C)c2cnc3ccc(-c4ccc(NC(=O)N5C[C@@H]6C[C@H]5CN6C)cc4)cc3c21
IC50 [1]: 25 nM

Structure (SMILES): CCN1CCN(C(=O)Nc2ccc(-c3ccc4ncc5c(c4c3)n(CCOC)c(=O)n5C)cc2)CC1
IC50 [1]: 159 nM

Structure (SMILES): COCCn1c(=O)n(C)c2cnc3ccc(-c4ccc(NC(=O)NCCN(C)C)c(F)c4Cl)cc3c21
IC50 [1]: 32 nM

Second part, the molecule after the results:

IC50 [1]: < 1 nM
Structure (SMILES): COCCn1c(=O)n(C)c2cnc3ccc(-c4ccc(NC(=O)NC5CCNCC5)cc4)cc3c21

IC50 [1]: 945 nM
Structure (SMILES): COCCn1c(=O)n(C)c2cnc3ccc(-c4ccc(NC(=O)N5CCC(N(C)C)CC5)cc4)cc3c21

IC50 [1]: < 1 nM
solubility thermodynamic [13]: 36 µM (≈ 17.6 µg/mL)
Structure (SMILES): CN(C)CCNC(=O)Nc1ccc(-c2ccc3ncc4c(c3c2)n(C2CCOCC2)c(=O)n4C)cn1

IC50 [1]: < 1 nM
Structure (SMILES): COCCn1c(=O)n(C)c2cnc3ccc(-c4ccc(NC(=O)NC5CCCN(C)C5)cc4)cc3c21 (stereo not given)

IC50 [1]: < 1 nM
IC50 [2]: 0.92 nM
Structure (SMILES): COCCn1c(=O)n(C)c2cnc3ccc(-c4ccc(NC(=O)NCCN5CCC5)cc4)cc3c21

Activity [3]: -11%
IC50 [1]: < 1 nM
IC50 [2]: 0.32 nM
Activity [4]: 34%
Activity [5]: -1%
Activity [6]: -4%
Selectivity ratio [7]: > 1000
Activity [8]: 42%
remaining at 2 h [9]: 50%
Activity [10]: 87%
Activity [11]: 23%
Activity [12]: 109%
Structure (SMILES): COCCn1c(=O)n(C)c2cnc3ccc(-c4ccc(NC(=O)NCCN5CC(F)C5)cc4)cc3c21

IC50 [1]: < 1 nM
Structure (SMILES): COCCn1c(=O)n(C)c2cnc3ccc(-c4ccc(NC(=O)NC5CCN(C)C5)cc4)cc3c21 (stereo not given)

IC50 [1]: < 1 nM
Structure (SMILES): COCCn1c(=O)n(C)c2cnc3ccc(-c4ccc(NC(=O)NC5CN(C)C5)cc4)cc3c21

IC50 [1]: < 1 nM
Structure (SMILES): COCCn1c(=O)n(C)c2cnc3ccc(-c4ccc(NC(=O)NC(C)CN(C)C)cc4)cc3c21 (stereo not given)

IC50 [1]: < 1 nM
IC50 [2]: 1.33 nM
Structure (SMILES): COCCn1c(=O)n(C)c2cnc3ccc(-c4ccc(NC(=O)N(C)CCN(C)C)cc4)cc3c21

solubility thermodynamic [13]: 2970 µM (≈ 1370 µg/mL)
Structure (SMILES): CN(C)CCCOc1ccc(-c2ccc3ncc4c(c3c2)n(C2CCOCC2)c(=O)n4C)cn1

IC50 [1]: < 1 nM
solubility thermodynamic [13]: 1570 µM (≈ 726 µg/mL)
IC50 [2]: 1.7 nM
Structure (SMILES): COCCn1c(=O)n(C)c2cnc3ccc(-c4ccc(NC(=O)NCCN(C)C)cc4)cc3c21

IC50 [1]: 16 nM
Structure (SMILES): COCCn1c(=O)n(C)c2cnc3ccc(-c4ccc(NC(=O)N5CCC(N)CC5)cc4)cc3c21

IC50 [1]: < 1 nM
solubility thermodynamic [13]: 39 µM (≈ 19.1 µg/mL)
Structure (SMILES): CN(C)CCNC(=O)Nc1ccc(-c2ccc3ncc4c(c3c2)n(C2CCOCC2)c(=O)n4C)cc1
